Measurements from patent publication US20260116922A1 (UNIVERSITAET WIEN, priority 2021, published 2026).
*1 amine or outer side, *2 acyl side, *3 side chain or, on linkers, in order; H or OH if unused. Where a SMILES comes first, the peptide text is derived from it. Bridges are numbered along the chain shown (N, C = ends). [ ]: non-standard residue; d: D form. The star is where a group is joined. N(4-F-Bzl)Gly = O=C(O)CNCc1ccc(F)cc1; αMeY = C[C@](N)(Cc1ccc(O)cc1)C(=O)O; Gly(cPent) = N[C@H](C(=O)O)C1CCCC1; αMeL = CC(C)C[C@](C)(N)C(=O)O; αMeV = CC(C)[C@](C)(N)C(=O)O; Thz = O=C(O)[C@@H]1CSCN1; X1 = O=C(CCC[*:2])[*:1]; Dap = NC[C@H](N)C(=O)O; Piv = CC(C)(C)C(=O)*

Target: T1, Human OTR (Homo sapiens, UniProt P30559)
T1 construct: expressed in transfected cells; host or cells: HEK293 (stably transfected, G418 selection)
T1 sequence (P30559 1-389): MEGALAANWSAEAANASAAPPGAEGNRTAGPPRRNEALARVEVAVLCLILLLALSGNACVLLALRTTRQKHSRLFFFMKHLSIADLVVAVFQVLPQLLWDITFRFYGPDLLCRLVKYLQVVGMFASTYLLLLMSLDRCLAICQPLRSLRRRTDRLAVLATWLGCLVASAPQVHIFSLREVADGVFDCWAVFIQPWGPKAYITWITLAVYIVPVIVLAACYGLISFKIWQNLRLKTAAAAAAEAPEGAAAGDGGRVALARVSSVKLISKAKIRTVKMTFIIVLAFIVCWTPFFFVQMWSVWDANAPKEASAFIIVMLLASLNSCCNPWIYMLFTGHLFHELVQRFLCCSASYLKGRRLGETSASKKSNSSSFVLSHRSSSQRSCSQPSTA
Assay: IP-1 accumulation in HEK293 cells stably expressing hOTR-GFP
Assay type: cell-based
Conditions: 1 h stimulation at 37° C., normalized to maximum OT response
Experimental: Cell culture for functional assays.
Measurement of inositol phosphate one (IP-1) accumulation. HEK293 cells were cultured in DMEM supplemented with 10% FBS and penicillin/streptomycin (100 U mL^−1) at 37° C. and 5% CO2. Cells were transferred into white opaque 384-well plates (CellStar®, Greiner, Austria) at ˜10,000 cells per well 48 h prior to measurement. Quantitative measurements of receptor-mediated IP-1 were performed by competitive immunoassay utilizing the IP-One assay kit [9]. HEK293 cells were assayed as per the manufacturer's protocol. Briefly, at the time of analysis, the culture media was removed and replaced with IP-1 stimulation buffer. Cells were allowed to equilibrate in the stimulation buffer at 37° C. for 15 min, followed by addition of peptide ligands (to final concentrations of 1 μM-10 μM) and subsequent stimulation for 1 h at 37° C. The stimulation was terminated by lysis and the simultaneous addition of homogenous time-resolved fluorescence resonance energy transfer reagents. The lysates were incubated for 1 h at 25° C. Fluorescence emission measurements at 620 nm and 665 nm were performed using a Spark Multimode plate reader (Tecan, Switzerland) at an excitation wavelength of 340 nm. Results were analyzed as a ratio of fluorescence intensities of 665 nm to 620 nm. […]

EC50 [nM] | Structure (SMILES)
> 500 | CC[C@H](C)[C@@H]1NC(=O)[C@H](Cc2ccc(OC)cc2)NC(=O)CCCSC[C@@H](C(=O)N(CC(=O)N[C@@H](CNC(C)=O)C(=O)NCC(N)=O)Cc2ccc(F)cc2)NC(=O)[C@H](CC(N)=O)NC(=O)[C@H](CCC(N)=O)NC1=O [Compound 8] (Y(Me)IQNC[N(4-F-Bzl)Gly][Dap](Ac)G-NH2; linker N-5 via X1)

System: not listed separately
Assay: Stability in simulated intestinal fluid (SIF)
Conditions: relative stability compared with SIF stability of oxytocin (8±1 min); SIF pH 6.8, pancreatin, 37° C.
Experimental: (§1) Simulated intestinal fluid (SIF). […] The solution was centrifuged, and syringe filtered before use.
(§2) Stability assay procedure. Stock solutions (1 mM) of test peptides were prepared in ddH2O. […] The peptide stock solution (30 μL) was added to the fluid, the mixture was vortexed and incubated at 37° C. […] All samples were centrifuged (5 min, 16,000×g) and stored at 4° C. before analysis.
(§3) RP-HPLC-UV(-MS) analysis of stability samples. […] 30 μL sample were injected on a Kromasil Classic C1S HPLC column (2.1×150 mm, 100 Å, 5 μm) equipped with a guard column (C18, 100 Å, 5 μm, 2.1 mm). […] Solvent A: 0.1% TFA in ddH2O. Solvent B: 0.08% TFA in ACN.
(§4) Data analysis. […] Peak areas (mAU×min) at individual time points were normalized to the mean value of time point zero (y(t0)=100%). To calculate compound half-lives (t1/2), a one-phase exponential decay function was fitted to normalized data points via a nonlinear regression in GraphPad Prism (Version 9) (GraphPad Software Inc., La Jolla, California, USA). The following constraints were applied: (i) y(t0) constant equal to 100, (ii) plateau constant equal to 0.

SIF stability [fold OT] | Structure (SMILES)
10-100 fold OT | CC[C@H](C)[C@@H]1NC(=O)[C@H](Cc2ccc(O)cc2)NC(=O)[C@@H](N)CSSC[C@@H](C(=O)N2CCC[C@H]2C(=O)N[C@@](C)(CC(C)C)C(=O)NCC(N)=O)NC(=O)[C@H](CC(N)=O)NC(=O)[C@H](CCC(N)=O)NC1=O [Compound 3]
>100 fold OT | CC[C@H](C)[C@@H]1NC(=O)[C@](C)(Cc2ccc(O)cc2)NC(=O)CCCSC[C@@H](C(=O)N2CCC[C@H]2C(=O)N[C@@H](CCCCNC(C)=O)C(=O)NCC(N)=O)NC(=O)[C@H](CC(N)=O)NC(=O)[C@H](CCC(N)=O)NC1=O [Compound 16] ([αMeY]IQNCPK(Ac)G-NH2; linker N-5 via X1)
>100 fold OT | CC[C@H](C)[C@@H]1NC(=O)[C@H](Cc2ccc(OC)cc2)NC(=O)CCCSC[C@@H](C(=O)N2CSC[C@H]2C(=O)N[C@@H](CCCCNC(C)=O)C(=O)NCC(N)=O)NC(=O)[C@H](CC(N)=O)NC(=O)[C@H](CCC(N)=O)NC1=O [Compound 22] (Y(Me)IQNC[Thz]K(Ac)G-NH2; linker N-5 via X1)
>100 fold OT | CC(=O)NCCCC[C@H](NC(=O)[C@@H]1CSCN1C(=O)[C@@H]1CSCCCC(=O)N[C@@](C)(Cc2ccc(O)cc2)C(=O)N[C@@H](C2CCCC2)C(=O)N[C@@H](CCC(N)=O)C(=O)N[C@@H](CC(N)=O)C(=O)N1)C(=O)NCC(N)=O [Compound 18] ([αMeY][Gly(cPent)]QNC[Thz]K(Ac)G-NH2; linker N-5 via X1)
> 100 fold OT | CC(=O)NCCCC[C@H](NC(=O)[C@@H]1CSCN1C(=O)[C@@H]1CSCCCC(=O)N[C@@H](Cc2ccc(O)cc2)C(=O)N[C@@](C)(C(C)C)C(=O)N[C@@H](CCC(N)=O)C(=O)N[C@@H](CC(N)=O)C(=O)N1)C(=O)NCC(N)=O [Compound 20] (Y[αMeV]QNC[Thz]K(Ac)G-NH2; linker N-5 via X1)
>100 fold OT | CC[C@H](C)[C@@H]1NC(=O)[C@H](Cc2ccc(C(F)(F)F)cc2)NC(=O)CCCSC[C@@H](C(=O)N2CCC[C@H]2C(=O)N[C@@H](CNC(C)=O)C(=O)NCC(N)=O)NC(=O)[C@H](CC(N)=O)NC(=O)[C@H](CCC(N)=O)NC1=O [Compound 12]
>100 fold OT | COc1ccc(C[C@@H]2NC(=O)CCCSC[C@@H](C(=O)N3CSC[C@H]3C(=O)N[C@@H](CCCCNC(C)=O)C(=O)NCC(N)=O)NC(=O)[C@H](CC(N)=O)NC(=O)[C@H](CCC(N)=O)NC(=O)[C@H](C3CCCC3)NC2=O)cc1 [Compound 23] (Y(Me)[Gly(cPent)]QNC[Thz]K(Ac)G-NH2; linker N-5 via X1)
>100 fold OT | CC[C@H](C)[C@@H]1NC(=O)[C@](C)(Cc2ccc(O)cc2)NC(=O)CCCSC[C@@H](C(=O)N2CSC[C@H]2C(=O)N[C@@H](CCCCNC(C)=O)C(=O)NCC(N)=O)NC(=O)[C@H](CC(N)=O)NC(=O)[C@H](CCC(N)=O)NC1=O [Compound 17] ([αMeY]IQNC[Thz]K(Ac)G-NH2; linker N-5 via X1)
>100 fold OT | CC[C@H](C)[C@@H]1NC(=O)[C@H](Cc2ccc(OC)cc2)NC(=O)CCCSC[C@@H](C(=O)N2CCC[C@H]2C(=O)N[C@@H](CCCCNC(C)=O)C(=O)NCC(N)=O)NC(=O)[C@H](CC(N)=O)NC(=O)[C@H](CCC(N)=O)NC1=O [Compound 5] (Y(Me)IQNCPK(Ac)G-NH2; linker N-5 via X1)
>100 fold OT | CC(=O)NCCCC[C@H](NC(=O)[C@@H]1CCCN1C(=O)[C@@H]1CSCCCC(=O)N[C@@H](Cc2ccc(O)cc2)C(=O)N[C@@](C)(C(C)C)C(=O)N[C@@H](CCC(N)=O)C(=O)N[C@@H](CC(N)=O)C(=O)N1)C(=O)NCC(N)=O [Compound 19] (Y[αMeV]QNCPK(Ac)G-NH2; linker N-5 via X1)
>100 fold OT | CC[C@H](C)[C@@H]1NC(=O)[C@H](Cc2ccc(OC)cc2)NC(=O)CCCSC[C@@H](C(=O)N2CCC[C@H]2C(=O)N[C@@H](CNC(C)=O)C(=O)NCC(N)=O)NC(=O)[C@H](CC(N)=O)NC(=O)[C@H](CCC(N)=O)NC1=O [Compound 6] (Y(Me)IQNCP[Dap](Ac)G-NH2; linker N-5 via X1)
>100 fold OT | CC[C@H](C)[C@@H]1NC(=O)[C@](C)(Cc2ccccc2)NC(=O)CCCSC[C@@H](C(=O)N2CCC[C@H]2C(=O)N[C@@H](CNC(C)=O)C(=O)NCC(N)=O)NC(=O)[C@H](CC(N)=O)NC(=O)[C@H](CCC(N)=O)NC1=O [Compound 10]
>100 fold OT | CC[C@H](C)[C@@H]1NC(=O)[C@H](Cc2ccc(OC)cc2)NC(=O)CCCSC[C@@H](C(=O)N2CCC[C@H]2C(=O)N[C@@](C)(CC(C)C)C(=O)NCC(N)=O)NC(=O)[C@H](CC(N)=O)NC(=O)[C@H](CCC(N)=O)NC1=O [Compound 7] (Y(Me)IQNCP[αMeL]G-NH2; linker N-5 via X1)
>100 fold OT | COc1ccc(C[C@@H]2NC(=O)CCCSC[C@@H](C(=O)N3CCC[C@H]3C(=O)N[C@@H](CNC(C)=O)C(=O)NCC(N)=O)NC(=O)[C@H](CC(N)=O)NC(=O)[C@H](CCC(N)=O)NC(=O)[C@H](C3CCCC3)NC2=O)cc1 [Compound 14] (Y(Me)[Gly(cPent)]QNCP[Dap](Ac)G-NH2; linker N-5 via X1)
10-100 fold OT | CC[C@H](C)[C@@H]1NC(=O)[C@H](Cc2ccc(O)cc2)NC(=O)[C@@H](N)CSSC[C@@H](C(=O)N2CCC[C@H]2C(=O)N[C@H](CC(=O)NCC(N)=O)CC(C)C)NC(=O)[C@H](CC(N)=O)NC(=O)[C@H](CCC(N)=O)NC1=O [Compound 4]
> 100 fold OT | CC[C@H](C)[C@@H]1NC(=O)[C@H](Cc2ccc(OC)cc2)NC(=O)CCCSC[C@@H](C(=O)N2CCC[C@H]2C(=O)N[C@@H](CNC(=O)C(C)(C)C)C(=O)NCC(N)=O)NC(=O)[C@H](CC(N)=O)NC(=O)[C@H](CCC(N)=O)NC1=O [Compound 13] (Y(Me)IQNCP[Dap](Piv)G-NH2; linker N-5 via X1)
10-100 fold OT | CC[C@H](C)[C@@H]1NC(=O)[C@H](Cc2ccc(O)cc2)NC(=O)[C@@H](N)CSSC[C@@H](C(=O)N2CCC[C@H]2C(=O)N[C@@H](CCCCNC(C)=O)C(=O)NCC(N)=O)NC(=O)[C@H](CC(N)=O)NC(=O)[C@H](CCC(N)=O)NC1=O [Compound 1]
10-100 fold OT | CC[C@H](C)[C@@H]1NC(=O)[C@H](Cc2ccc(O)cc2)NC(=O)[C@@H](N)CSSC[C@@H](C(=O)N2CCC[C@H]2C(=O)N[C@@H](CNC(C)=O)C(=O)NCC(N)=O)NC(=O)[C@H](CC(N)=O)NC(=O)[C@H](CCC(N)=O)NC1=O [Compound 2]
>100 fold OT | COc1ccc(C[C@@H]2NC(=O)CCCSC[C@@H](C(=O)N3CCC[C@H]3C(=O)N[C@@H](CCCCNC(C)=O)C(=O)NCC(N)=O)NC(=O)[C@H](CC(N)=O)NC(=O)[C@H](CCC(N)=O)NC(=O)[C@H](C3CCCC3)NC2=O)cc1 [Compound 21] (Y(Me)[Gly(cPent)]QNCPK(Ac)G-NH2; linker N-5 via X1)
>100 fold OT | CC[C@H](C)[C@@H]1NC(=O)[C@](C)(Cc2ccc(O)cc2)NC(=O)CCCSC[C@@H](C(=O)N2CCC[C@H]2C(=O)N[C@@H](CNC(C)=O)C(=O)NCC(N)=O)NC(=O)[C@H](CC(N)=O)NC(=O)[C@H](CCC(N)=O)NC1=O [Compound 9] ([αMeY]IQNCP[Dap](Ac)G-NH2; linker N-5 via X1)
>100 fold OT | CC(=O)NC[C@H](NC(=O)[C@@H]1CCCN1C(=O)[C@@H]1CSCCCC(=O)N[C@@H](Cc2ccc(O)cc2)C(=O)N[C@@](C)(C(C)C)C(=O)N[C@@H](CCC(N)=O)C(=O)N[C@@H](CC(N)=O)C(=O)N1)C(=O)NCC(N)=O [Compound 15] (Y[αMeV]QNCP[Dap](Ac)G-NH2; linker N-5 via X1)
10-100 fold OT | CC[C@H](C)[C@@H]1NC(=O)[C@H](Cc2ccc(C)cc2)NC(=O)CCCSC[C@@H](C(=O)N2CCC[C@H]2C(=O)N[C@@H](CNC(C)=O)C(=O)NCC(N)=O)NC(=O)[C@H](CC(N)=O)NC(=O)[C@H](CCC(N)=O)NC1=O [Compound 11]
10-100 fold OT | CC[C@H](C)[C@@H]1NC(=O)[C@H](Cc2ccc(OC)cc2)NC(=O)CCCSC[C@@H](C(=O)N(CC(=O)N[C@@H](CNC(C)=O)C(=O)NCC(N)=O)Cc2ccc(F)cc2)NC(=O)[C@H](CC(N)=O)NC(=O)[C@H](CCC(N)=O)NC1=O [Compound 8] (Y(Me)IQNC[N(4-F-Bzl)Gly][Dap](Ac)G-NH2; linker N-5 via X1)

System: not listed separately
Assay: in vitro
Conditions: simulated gi fluid, pH 6.8
Experimental: as §1, §2, §3, §4

half-life at 50 µM [min] | Structure (SMILES)
8 ± 1 | CC[C@H](C)[C@@H]1NC(=O)[C@H](Cc2ccc(O)cc2)NC(=O)[C@@H](N)CSSC[C@@H](C(=O)N2CCC[C@H]2C(=O)N[C@@H](CC(C)C)C(=O)NCC(N)=O)NC(=O)[C@H](CC(N)=O)NC(=O)[C@H](CCC(N)=O)NC1=O [OT, oxytocin]

System: not listed separately
Assay: in vitro
Conditions: simulated gi fluid

half-life [min] | Structure (SMILES)
> 1440 | CC[C@H](C)[C@@H]1NC(=O)[C@H](Cc2ccc(O)cc2)NC(=O)[C@@H](N)CSSC[C@@H](C(=O)N2CCC[C@H]2C(=O)N[C@@H](CC(C)C)C(=O)NCC(N)=O)NC(=O)[C@H](CC(N)=O)NC(=O)[C@H](CCC(N)=O)NC1=O [OT, oxytocin]
